{"source": "patent US8710088B2", "about": "“Pharmaceutical and diagnostic compositions for use in the treatment and diagnosis of neurodegenerative diseases or amyloid diseases” (Max-Delbruck-Centrum fur Molekulare Medizin, priority 2004, dated 2014)", "data": [{"biological_target": "amyloid-beta fibrils (Homo sapiens, UniProt P05067)", "sequence (P05067 672-713 limits assumed)": "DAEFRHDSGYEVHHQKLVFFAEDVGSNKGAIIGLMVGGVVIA", "experiment": "binding to amyloid-beta aggregates located on a cellulose acetate membrane", "settings": "colored substances", "text": "FIG. 16: Binding to amyloid-beta aggregates located on a cellulose acetate membrane", "values": [{"compound": "Cc1cc(O)cc(O)c1-c1c(N)cc2oc3cc(=N)c(-c4c(C)cc(O)cc4O)c(C)c-3nc2c1C", "note": "[beta-amino-orceimine]", "direct binding to amyloid-beta fibrils": "bind directly to amyloid-beta fibrils"}, {"compound": "Cc1cc(O)cc(O)c1-c1c(N)cc2oc3cc(=O)c(-c4c(C)cc(O)cc4O)c(C)c-3nc2c1C", "note": "[beta-amino-orcein]", "direct binding to amyloid-beta fibrils": "bind directly to amyloid-beta fibrils"}, {"compound": "Cc1cc(O)cc(O)c1-c1c(O)cc2oc3cc(=O)c(-c4c(C)cc(O)cc4O)c(C)c-3nc2c1C", "note": "[beta-hydroxy-orcein]", "direct binding to amyloid-beta fibrils": "bind directly to amyloid-beta fibrils"}, {"compound": "c1ccc2c(c1)Nc1ccccc1O2", "note": "[phenoxazine]", "direct binding to amyloid-beta fibrils": "bind directly to amyloid-beta fibrils"}, {"compound": "O=c1ccc2nc3ccccc3oc-2c1", "note": "[phenoxazone]", "direct binding to amyloid-beta fibrils": "bind directly to amyloid-beta fibrils"}, {"compound": "alpha-amino-orceimine", "direct binding to amyloid-beta fibrils": "bind directly to amyloid-beta fibrils"}, {"compound": "alpha-hydroxy-orcein", "direct binding to amyloid-beta fibrils": "bind directly to amyloid-beta fibrils"}, {"compound": "gamma-amino-orcein", "direct binding to amyloid-beta fibrils": "bind directly to amyloid-beta fibrils"}]}, {"test_system": "alpha-synuclein", "experiment": "alpha-synuclein amyloid fibril formation, electron microscopy", "assay_type": "biochemical", "settings": "wild type protein or mutant (A53T)", "text": "For this purpose, the wild type protein or a mutant (A53T) was used.", "values": [{"compound": "O=C(O[C@@H]1Cc2c(O)cc(O)cc2O[C@H]1c1cc(O)c(O)c(O)c1)c1cc(O)c(O)c(O)c1", "note": "[GCG, (−)-Gallocatechin gallate]", "Inhibition of the aggregation of alpha-synuclein (amyloid fibrils)": "Inhibition of the aggregation"}]}, {"biological_target": "T1, mutant huntingtin (GST fusion protein GST-HDQ51) (Homo sapiens, UniProt P42858, INS38QQQQQQQQQQQQQQQQQQQQQQQQQQQQQQ)", "T1 construct": "GST (N)", "T1 sequence (P42858 with tags, fused parts or gaps with the stated changes limits assumed)": "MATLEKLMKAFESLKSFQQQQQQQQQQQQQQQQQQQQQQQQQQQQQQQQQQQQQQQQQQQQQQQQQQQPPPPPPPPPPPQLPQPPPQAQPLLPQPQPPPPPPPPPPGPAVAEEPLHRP", "experiment": "in vitro aggregation of mutant huntingtin, membrane filter test", "assay_type": "biochemical", "settings": "membrane filter method", "description": "As in the tests described by Heiser et al. (2002), the protein was used for aggregation tests to which either only solvent or solvent and the chemical agent in question was added. Aliquots of these batches were examined by means of the membrane filter test and electron microscopy.\nAs in the tests described by Heiser et al. (2002), the protein was used for aggregation tests to which either only solvent or solvent and 7-amino-8-(2,4-dihydroxy-6-methyl-phenyl)-1,9-dimethyl-phenoxazine-3-one was added. Aliquots of these batches were examined by means of the membrane filter test (FIG. 1B) and electron microscopy (FIGS. 1E and 1F).", "values": [{"compound": "CN1C(CO)=Nc2cccc3cccc1c23", "note": "[(1-methyl-1H-perimidine-2-yl)-methanol]", "Inhibition of the aggregation of huntingtin (Exon-1) (SDS-insoluble aggregates)": "Inhibition of the aggregation"}]}, {"biological_target": "T2, wild type Aβ1-42 (Homo sapiens, UniProt P05067)", "T2 construct": "non-mutated (wild type) Aβ1-42", "T2 sequence (P05067 672-713 limits assumed)": "as the sequence (P05067 672-713 limits assumed) above", "experiment": "aggregation assay with wild type Aβ1-42, membrane filter method", "assay_type": "biochemical", "settings": "peptide 15 μM, pH 7.4, 42 h, 37° C.", "description": "Analogously, the compounds were also examined in aggregation assays with the amyloid β-peptide Aβ1-42(E22Q), which is a particularly rapidly aggregating variant of amyloid β, as well as with non-mutated (wild type) Aβ1-42. For this purpose, the peptide was incubated at a concentration of 15 μM in a phosphate buffer with a physiological pH value of 7.4 for 42 h at 37° C. and subsequently, aliquots were examined by means of the membrane filter method (Figure) or electron microscopy (Figures) as well. […] Cell viability measurements were carried out in neuronally differentiated PC12 cells to which beta-amyloid and the substances to be tested were added extracellularly in order to examine whether the compounds are able to reduce toxicity caused by amyloid-beta. After 48 h the viability of the cells (approximately corresponds to the number of vital cells) was measured.", "values": [{"compound": "CC1=Nc2cccc3cccc(c23)N1C", "note": "[1,2-dimethyl-1H-perimidine]", "Inhibition of the aggregation of wild type Aβ1-42 (SDS-insoluble aggregates)": "Inhibition of the aggregation"}, {"compound": "Cc1cc(=O)cc2oc3cccc(C)c3nc1-2", "note": "[1,9-dimethyl-phenoxazine-3-one]", "Inhibition of the aggregation of wild type Aβ1-42 (SDS-insoluble aggregates)": "Inhibition of the aggregation"}, {"compound": "S=C1Nc2cccc3cccc(c23)N1", "note": "[1H,3H-perimidine-2-thione]", "Inhibition of the aggregation of wild type Aβ1-42 (SDS-insoluble aggregates)": "Inhibition of the aggregation"}, {"compound": "c1cc2c3c(cccc3c1)NC(c1c[nH]cn1)=N2", "note": "[2-(1H-imidazole-4-yl)-1H-perimidine, 2-(1H-Imidazole-4-yl)-1H-perimidine]", "Inhibition of the aggregation of wild type Aβ1-42 (SDS-insoluble aggregates)": "Inhibition of the aggregation"}, {"compound": "COC(=O)C1CC2=C(Cc3ccccc32)CN1c1ccco1", "note": "(centres unmarked) [2-Furan-2-yl-2,3,4,9-tetrahydro-1H-indenol[2,3-c]pyridine-3-carboxylic acid methyl ester]", "Inhibition of the aggregation of wild type Aβ1-42 (SDS-insoluble aggregates)": "Inhibition of the aggregation"}, {"compound": "Cc1ccc(C2=Nc3cccc4cccc(c34)N2)cc1", "note": "[2-p-tolyl-1H-perimidine]", "Inhibition of the aggregation of wild type Aβ1-42 (SDS-insoluble aggregates)": "Inhibition of the aggregation"}, {"compound": "c1cncc(C2=Nc3cccc4cccc(c34)N2)c1", "note": "[2-pyridine-3-yl-1H-perimidine]", "Inhibition of the aggregation of wild type Aβ1-42 (SDS-insoluble aggregates)": "Inhibition of the aggregation"}, {"compound": "N#Cc1ccc(C2=Nc3cccc4cccc(c34)N2)cc1", "note": "[4-(1H-perimidine-2-yl)-benzonitrile]", "Inhibition of the aggregation of wild type Aβ1-42 (SDS-insoluble aggregates)": "Inhibition of the aggregation"}, {"compound": "Cc1cc(=O)cc2oc3cc(O)cc(C)c3nc1-2", "note": "[7-hydroxy-1,9-dimethyl-phenoxazine-3-one]", "Inhibition of the aggregation of wild type Aβ1-42 (SDS-insoluble aggregates)": "Inhibition of the aggregation"}, {"compound": "Cc1cc(O)cc(O)c1-c1c(O)cc2oc3cc(=O)c(-c4c(C)cc(O)cc4O)c(C)c-3nc2c1C", "note": "[beta-hydroxy-orcein]", "Inhibition of the aggregation of wild type Aβ1-42 (SDS-insoluble aggregates)": "Inhibition of the aggregation"}]}, {"test_system": "huntingtin-Exon-1 with 103 glutamines (Htt103Q-EGFP)", "experiment": "stably transfected PC12 cell line with inducible Htt103Q-EGFP, membrane filter test", "assay_type": "cell-based", "settings": "muristerone induced, 44 h, membrane filter method", "description": "The compounds were additionally tested in a stably transfected PC12 cell line. This cell line was transfected with an ecdysone-inducible plasmid whose N-terminal codes for huntingtin-Exon-1 marked with GFP with 103 glutamines (Htt103Q-EGFP). The Htt103Q-EGFP expression was induced with muristerone and the cells were subsequently cultivated for 44 h in the presence of solvents or the chemical agents. Subsequently, the amount of aggregate was determined with the help of the membrane filter test as described by Heiser et al. (2002). Furthermore, the amount of aggregate was determined with the help of a fluorescence measurement (data not shown). […] The latter could be deduced from the total amount of protein in the cell lysate (FIG. 2B) which was determined with the help of cell extracts.", "values": [{"compound": "CN(C)CCCNc1nc2c(ccc3[nH]c(=O)c(C#N)cc32)s1", "note": "[2-(3-dimethylamino-propylamino)-7-oxo-6,7-dihydro-thiazolo[4,5-f]quinoline-8-carbonitrile]", "Inhibition of the aggregation of huntingtin (Exon-1) in mammalian cells": "Inhibition of the aggregation"}, {"compound": "N#Cc1cc2c(ccc3sc(N)nc32)[nH]c1=O", "note": "[2-Amino-7-oxo-6,7-dihydro-thiazolo[4,5-f]quinoline-8-carbonitrile]", "Inhibition of the aggregation of huntingtin (Exon-1) in mammalian cells": "Inhibition of the aggregation"}, {"compound": "CCN(CC)CCN(CC)c1nc2c(ccc3[nH]c(=O)c(C#N)cc32)s1", "note": "[2-[(2-diethylamino-ethyl)-ethyl-amino]-7-oxo-6,7-dihydro-thiazolo[4,5-f]quinoline-8-carbonitrile]", "Inhibition of the aggregation of huntingtin (Exon-1) in mammalian cells": "Inhibition of the aggregation"}, {"compound": "CN(C)CCN(Cc1ccccc1)c1nc2c(ccc3[nH]c(=O)c(C#N)cc32)s1", "note": "[2-[Benzyl-(2-dimethylamino-ethyl)-amino]7-oxo-6,7-dihydro-thiazolo[4,5-f]quinoline-8-carbonitrile]", "Inhibition of the aggregation of huntingtin (Exon-1) in mammalian cells": "Inhibition of the aggregation"}, {"compound": "N#Cc1cc2c(ccc3sc(NCCN4CCCCC4)nc32)[nH]c1=O", "note": "[7-Oxo-2-(2-piperidine-1-yl-ethylamino)-6,7-dihydrothiazolo[4,5-f]quinoline-8-carbonitrile]", "Inhibition of the aggregation of huntingtin (Exon-1) in mammalian cells": "Inhibition of the aggregation"}, {"compound": "CC(=O)N(CCN(C)C)c1nc2c(ccc3[nH]c(=O)c(C#N)cc32)s1", "note": "[N-(8-Cyano-7-oxo-6,7-dihydro-thiazolo[4,5-f]quinoline-2-yl)-N-(2-dimethylamino-ethyl)-acetamide]", "Inhibition of the aggregation of huntingtin (Exon-1) in mammalian cells": "Inhibition of the aggregation"}, {"compound": "CN(C)CCN(C=O)c1nc2c(ccc3[nH]c(=O)c(C#N)cc32)s1", "note": "[N-(8-Cyano-7-oxo-6,7-dihydro-thiazolo[4,5-f]quinoline-2-yl)-N-(2-dimethylamino-ethyl-formamide]", "Inhibition of the aggregation of huntingtin (Exon-1) in mammalian cells": "Inhibition of the aggregation"}, {"compound": "CN(C)CCCN(C=O)c1nc2c(ccc3[nH]c(=O)c(C#N)cc32)s1", "note": "[N-(8-Cyano-7-oxo-6,7-dihydro-thiazolo[4,5-f]quinoline-2-yl)-N-(3-dimethylamino-propyl)-formamide]", "Inhibition of the aggregation of huntingtin (Exon-1) in mammalian cells": "Inhibition of the aggregation"}]}, {"biological_target": "T3, huntingtin (Homo sapiens, UniProt P42858, INS38QQQQQQQQQQQQQQQQQQQQQQQQQQQQQQ)", "T3 construct": "expressed in transfected cells; host or cells: COS1 cells, transient transfection", "T3 sequence (P42858 with tags, fused parts or gaps with the stated changes limits assumed)": "as the sequence (P42858 with tags, fused parts or gaps with the stated changes limits assumed) above", "experiment": "cell culture model of Huntington's chorea: COS1 cells transfected with pTL1-CAG51, membrane filter test", "assay_type": "cell-based", "settings": "40-44 h, membrane filter method", "description": "The compounds were then tested in several cell culture models of polyglutamine diseases, inter alia Huntington's chorea. For this purpose, COS1 cells were transiently transfected with the plasmid pTL1-CAG51 already described above (Sittler, A., Walter, S., Wedemeyer, N., Hasenbank, R., Scherzinger, E., Eickhoff, H., Bates, G. P., Lehrach, H. and Wanker, E. E. (1998) Mol Cell 2, 427-36) and cultivated for 44 h in the presence of solvents or the chemical agents. Subsequently, the amount of aggregate was determined with the help of the membrane filter test as described by Heiser et al. (2002). […] The latter could be deduced from the total amount of protein in the cell lysate (FIG. 2B) which was determined with the help of cell extracts.\n7-Amino-8-(2,4-dihydroxy-6-methyl-phenyl)-1,9-dimethyl-phenoxazine-3-one was then tested in a cell culture model of Huntington's chorea. For this purpose, COS1 cells were transiently transfected with the plasmid pTL1-CAG51 already described above (Sittler, A., Walter, S., Wedemeyer, N., Hasenbank, R., Scherzinger, E., Eickhoff, H., Bates, G. P., Lehrach, H. and Wanker, E. E. (1998) Mol Cell 2, 427-36) and cultivated for 40-44 h in the presence of solvents or 7-amino-8-(2,4-dihydroxy-6-methyl-phenyl)-1,9-dimethyl-phenoxazine-3-one. Subsequently, the amount of aggregate was determined with the help of the membrane filter test as described by Heiser et al. (2002). […] The latter could be deduced from the total amount of protein (FIG. 2B) which was determined with the help of cell extracts.", "values": [{"compound": "C1=CC2=Nc3ccccc3OC2=CC1", "note": "[3H-phenoxazine, 3H-Phenoxazine]", "Inhibition of the aggregation of huntingtin in mammalian cells": "Inhibition of the aggregation"}, {"compound": "CCOC(=O)C(CC(C)C)c1nc(-c2ccccc2)ns1", "note": "(centres unmarked) [4-methyl-2-(3-phenyl-[1,2,4]thiadiazole-5-yl)-pentanoic acid ethyl ester]", "Inhibition of the aggregation of huntingtin in mammalian cells": "Inhibition of the aggregation"}, {"compound": "O=C(Nc1nccs1)c1ccc(-c2ccc(C(=O)Nc3nccs3)o2)cc1", "note": "[5-[4-(Thiazole-2-ylcarbamoyl)-phenyl]-furan-2-carboxylic acid thiazole-2-ylamide]", "Inhibition of the aggregation of huntingtin in mammalian cells": "Inhibition of the aggregation"}, {"compound": "Cc1cc(=O)cc2oc3cc(N)cc(C)c3nc1-2", "note": "[7-amino-1,9-dimethyl-phenoxazine-3-one]", "Inhibition of the aggregation of huntingtin in mammalian cells": "Inhibition of the aggregation"}, {"compound": "Cc1cc(O)cc(O)c1-c1c(N)cc2oc3cc(=O)c(-c4c(C)cc(O)cc4O)c(C)c-3nc2c1C", "note": "[beta-amino-orcein]", "Inhibition of the aggregation of huntingtin in mammalian cells": "Inhibition of the aggregation"}, {"compound": "O=c1ccc2nc3ccccc3oc-2c1", "note": "[phenoxazin-3-one]", "Inhibition of the aggregation of huntingtin in mammalian cells": "Inhibition of the aggregation"}, {"compound": "alpha-hydroxy-orcein", "Inhibition of the aggregation of huntingtin in mammalian cells": "Inhibition of the aggregation"}]}]}
